Results on 10 compounds are retold here after patent publication US8962630B2, “Pyrrolopyrimidine compounds and their uses” (Novartis AG, priority 2008, dated 2015).

The structures appear in SMILES notation. Read-outs that look alike come from different tables or passages of the source. Where only a bound is given, the exact number is not on record here.

The target of one assay is CDK1/cyclin B (Homo sapiens (Human), UniProt P06493). The assay can be described thus: CDK1/Cyclin B enzymatic activity assay (IMAP-FP). In kind it is biochemical. The source says: A 384-well microtiter IMAP-FPT™ (Molecular Devices Trade Mark Technology) endpoint assay was used for CDK1/cyclin B kinase activity measurements. The same assay was used for IC50 determination of small molecule inhibitors.

A further assay has as its target CDK4/cyclin D1 (Homo sapiens (Human), UniProt P11802). As to the kind of experiment: CDK4/Cyclin D1 enzymatic activity assay (Lance TR-FRET). The assay is classed as biochemical. The method in brief:
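IC50 from a TR-FRET endpoint read of phospho-pRb(S780) after EDTA quench. Reaction: 60 min, room temperature, 3 μM ATP, 175 nM pRb152 substrate, 0.3 nM Sf21-derived His6-CDK4/GST-cyclin D1, pH 7.5 HEPES with MgCl2/MnCl2, 2% DMSO, inhibitor 0.005-10 μM.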

The target of the next assay is CDK2/cyclin A (Homo sapiens (Human), UniProt P24941). As to the kind of experiment: CDK2/Cyclin A enzymatic activity assay (IMAP-FP). In kind it is biochemical.
A further assay relates to pRb negative cells. As to the kind of experiment: cell proliferation of pRb negative cells. In kind it is cell-based. As to conditions: high concentrations.
For the next assay, the system named is cell cycle. The assay can be described thus: cell cycle analysis. The assay is classed as cell-based. The settings on record: up to 10 uM.
[1] abbreviates: Table 2, 20 μM ATP, read-out: CDK1.
Where [2] appears, read: Table 2, 3 μM ATP, read-out: CDK4.

CDK1/cyclin B, sequence (P06493 whole entry, species assumed): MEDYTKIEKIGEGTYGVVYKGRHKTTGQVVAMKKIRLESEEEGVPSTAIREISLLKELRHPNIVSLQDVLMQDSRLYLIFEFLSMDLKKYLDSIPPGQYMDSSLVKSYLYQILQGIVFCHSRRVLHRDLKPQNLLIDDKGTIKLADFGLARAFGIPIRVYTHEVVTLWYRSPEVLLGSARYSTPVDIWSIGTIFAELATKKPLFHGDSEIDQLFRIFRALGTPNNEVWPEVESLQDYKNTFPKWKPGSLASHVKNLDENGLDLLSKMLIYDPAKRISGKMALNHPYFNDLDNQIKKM
CDK1/cyclin B, sequence (P14635 whole entry partner, species assumed): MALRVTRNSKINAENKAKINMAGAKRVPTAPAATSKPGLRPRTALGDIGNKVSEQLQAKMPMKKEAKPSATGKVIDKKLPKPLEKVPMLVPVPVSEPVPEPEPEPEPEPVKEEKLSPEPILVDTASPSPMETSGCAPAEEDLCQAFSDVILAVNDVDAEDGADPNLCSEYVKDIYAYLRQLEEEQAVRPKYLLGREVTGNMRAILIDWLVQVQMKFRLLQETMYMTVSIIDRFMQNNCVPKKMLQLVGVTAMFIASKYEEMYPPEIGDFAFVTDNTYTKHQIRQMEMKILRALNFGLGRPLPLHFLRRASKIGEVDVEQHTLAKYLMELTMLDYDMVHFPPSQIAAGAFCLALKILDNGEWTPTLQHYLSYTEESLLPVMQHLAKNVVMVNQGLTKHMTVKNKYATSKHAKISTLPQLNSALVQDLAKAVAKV
CDK4/cyclin D1, sequence (P11802 whole entry): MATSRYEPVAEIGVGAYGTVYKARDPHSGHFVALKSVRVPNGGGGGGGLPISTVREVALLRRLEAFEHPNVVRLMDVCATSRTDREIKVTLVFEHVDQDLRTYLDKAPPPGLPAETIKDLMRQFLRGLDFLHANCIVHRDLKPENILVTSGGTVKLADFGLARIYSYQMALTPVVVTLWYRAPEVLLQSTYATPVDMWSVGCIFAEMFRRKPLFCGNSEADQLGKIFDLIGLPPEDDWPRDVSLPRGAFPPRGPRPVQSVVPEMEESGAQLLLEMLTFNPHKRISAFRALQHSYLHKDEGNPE
CDK4/cyclin D1, sequence (P24385 whole entry partner): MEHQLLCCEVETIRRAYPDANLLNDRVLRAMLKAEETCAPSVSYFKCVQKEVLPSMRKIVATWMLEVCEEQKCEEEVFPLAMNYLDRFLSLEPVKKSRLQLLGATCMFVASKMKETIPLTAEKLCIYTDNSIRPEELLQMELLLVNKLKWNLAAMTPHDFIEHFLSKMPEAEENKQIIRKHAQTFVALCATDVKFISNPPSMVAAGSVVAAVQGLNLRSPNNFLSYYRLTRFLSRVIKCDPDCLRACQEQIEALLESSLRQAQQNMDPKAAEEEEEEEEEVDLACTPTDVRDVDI

For the compound `CN(C)C(=O)c1cc2cnc(Nc3ccc(N4CCNCC4)cc3)nc2n1C1CCCC1` [Example 200, reference compound], the IC50 on CDK1/cyclin B (Table 4, read-out: IC50 (μM) CDK1) is more than 1.6 µM; at CDK4/cyclin D1 (Table 4, read-out: IC50 (μM) CDK4), 0.005 µM; on CDK2/cyclin A (Table 4, read-out: IC50 (μM) CDK2) it was more than 1.4 µM. Also, the “inhibition of cell proliferation of pRb negative cells” value with pRb negative cells is “does inhibit the cell proliferation of pRb negative cells at high concentrations”. Besides, in the assay with cell cycle, the “cell cycle arrest phase” value is “starts to induce G2/M phase blocks at 1 and 10 uM concentrations”.

As for `C[C@H]1CN(Cc2ccc(Nc3ncc4cc(C(=O)N(C)C)n(C5CCCC5)c4n3)nc2)CCN1` [Example 55, 7-Cyclopentyl-2-[5-((S)-3-methyl-piperazin-1-ylmethyl)-pyridin-2-ylamino]-7H-pyrrolo[2,3-d]pyrimidine-6-carboxylic acid dimethylamide], the IC50 on CDK1/cyclin B (setting [1]) was more than 15 µM; at CDK4/cyclin D1 (setting [2]), 0.01 to 0.1 µM; at CDK2/cyclin A (Table 2, read-out: CDK2), more than 15 µM.

In the case of `CC(CO)N1CCN(c2ccc(Nc3ncc4cc(C(=O)N(C)C)n(C5CCCC5)c4n3)nc2)CC1` (centres unmarked) [Example 36, 7-Cyclopentyl-2-{5-[4-(2-hydroxy-1-methyl-ethyl)-piperazin-1-yl]-pyridin-2-ylamino}-7H-pyrrolo[2,3-d]pyrimidine-6-carboxylic acid dimethylamide], the IC50 on CDK1/cyclin B (setting [1]) is more than 15 µM; at CDK4/cyclin D1 (setting [2]), 0.01 to 0.1 µM; at CDK2/cyclin A (Table 2, read-out: CDK2), more than 15 µM.

Regarding `CN(C)C(=O)c1cc2cnc(Nc3ccc(C4CCN(CCO)CC4)cn3)nc2n1C1CCCC1` [Example 100, 7-Cyclopentyl-2-[1′-(2-hydroxy-ethyl)-1′,2′,3′,4′,5′,6′-hexahydro-[3,4]bipyridinyl-6-ylamino]-7H-pyrrolo[2,3-d]pyrimidine-6-carboxylic acid dimethylamide], the IC50 at CDK1/cyclin B (setting [1]) was more than 15 µM; on CDK4/cyclin D1 (setting [2]), 0.01 to 0.1 µM; on CDK2/cyclin A (Table 2, read-out: CDK2), more than 15 µM.

In the case of `CN(C)C(=O)c1cc2cnc(Nc3ccc(N4CCN(C(=O)N5CCCCC5)CC4)cn3)nc2n1C1CCCC1` [Example 94, 7-Cyclopentyl-2-{5-[4-(piperidine-1-carbonyl)-piperazin-1-yl]-pyridin-2-ylamino}-7H-pyrrolo[2,3-d]pyrimidine-6-carboxylic acid dimethylamide], the IC50 at CDK1/cyclin B (setting [1]) is more than 15 µM; on CDK4/cyclin D1 (setting [2]), 0.01 to 0.1 µM; on CDK2/cyclin A (Table 2, read-out: CDK2) it was more than 15 µM.

For `CN(C)C(=O)c1cc2cnc(Nc3ccc(N4CCN(C(=O)N5CCCC5)CC4)cn3)nc2n1C1CCCC1` [Example 22, 7-Cyclopentyl-2-{5-[4-(pyrrolidine-1-carbonyl)-piperazin-1-yl]-pyridin-2-ylamino}-7H-pyrrolo[2,3-d]pyrimidine-6-carboxylic acid dimethylamide], the IC50 at CDK1/cyclin B (setting [1]) was more than 15 µM; at CDK4/cyclin D1 (setting [2]) it was 0.01 to 0.1 µM; at CDK2/cyclin A (Table 2, read-out: CDK2) it was more than 15 µM.

On to `CN(C)C(=O)c1cc2cnc(Nc3cnc(N4CCN(CCO)CC4)cn3)nc2n1C1CCCC1` [Example 15, 7-Cyclopentyl-2-[4-(2-hydroxy-ethyl)-3,4,5,6-tetrahydro-2H-[1,2]′bipyrazinyl-5′-ylamino]-7H-pyrrolo[2,3-d]pyrimidine-6-carboxylic acid dimethylamide], for which the IC50 at CDK1/cyclin B (setting [1]) was more than 15 µM; at CDK4/cyclin D1 (setting [2]), 0.1 to 1 µM; at CDK2/cyclin A (Table 2, read-out: CDK2), more than 15 µM.

With `c1ncc(-c2cc3cnc(Nc4ccc(N5CCNCC5)cn4)nc3n2C2CCCC2)o1` [Example 11, (7-Cyclopentyl-6-oxazol-5-yl-7H-pyrrolo[2,3-d]pyrimidin-2-yl)-(5-piperazin-1-yl-pyridin-2-yl)-amine], the IC50 is 1.3 µM on CDK1/cyclin B (setting [1]); 0.001 to 0.01 µM at CDK4/cyclin D1 (setting [2]); 3.5 µM at CDK2/cyclin A (Table 2, read-out: CDK2).

Consider `CN(C)C(=O)c1cc2cnc(Nc3ccc(C(=O)N(C)C4CCNCC4)cn3)nc2n1C1CCCC1` [Example 53, 7-Cyclopentyl-2-[5-(methyl-piperidin-4-yl-carbamoyl)-pyridin-2-ylamino]-7H-pyrrolo[2,3-d]pyrimidine-6-carboxylic acid dimethylamide], for which the IC50 at CDK1/cyclin B (setting [1]) is more than 15 µM; on CDK4/cyclin D1 (setting [2]) it was 0.01 to 0.1 µM; at CDK2/cyclin A (Table 2, read-out: CDK2), more than 15 µM.

`C[C@@H]1CN(Cc2ccc(Nc3ncc4cc(C(=O)N(C)C)n(C5CCCC5)c4n3)nc2)C[C@H](C)N1` [Example 75, 7-Cyclopentyl-2-[5-((3S,5R)-3,5-dimethyl-piperazin-1-ylmethyl)-pyridin-2-ylamino]-7H-pyrrolo[2,3-d]pyrimidine-6-carboxylic acid dimethylamide]: the IC50 was more than 15 µM at CDK1/cyclin B (setting [1]); 0.01 to 0.1 µM at CDK4/cyclin D1 (setting [2]); more than 15 µM on CDK2/cyclin A (Table 2, read-out: CDK2).
